Measurements taken from patent US12194027B2, “Small molecule inhibitors of GPCR GPR68 and related receptors for treating cancer, glioblastoma, and other indications” (UNIVERSITY OF MARYLAND, BALTIMORE, priority 2019, dated 2025).

Columns and labels:
U87 cells = assay: U87 viability with temozolomide plus OGM2; type: cell-based; details: 0.5 μM or 5 μM OGM2 with increasing TMZ
Experimental: U87 cells were treated with increasing concentrations of temozolomide (TMZ) without OGM2 or with 0.5 μM or 5 μM OGM2.

A549 lung cancer cells [1] = assay: A549 viability (crystal violet); type: cell-based; details: 24 hours
Experimental: A549 lung cancer cells were plated at different concentrations of cell per well in a 96-well plate. On the following day cells were treated with increasing doses of OGM2. Twenty-four hours later cells viability was assayed with crystal violet and normalized to untreated.

breast (MDA MB231) = assay: viability (cell titer blue), breast cancer cells; type: cell-based; details: MDA MB231, 72 hours
Experimental: (§1) Multiple studies were conducted as discussed herein, but with different cancer type cohorts. Data was extracted from Gene expression omnibus using ProggeneV2. Briefly, probes were prepared using standard Affymetrix™ protocols, and hybridized to Affymetrix™ HG-U133A and HG-U133B arrays. The cohort was separated by High and low expression of GPR68 by above or below the median expression level. Survival of the cohorts was plotted in FIG. 26A. Survival of multiple cancer types including breast (MDA MB231), glioblastoma (U87), and Prostatic Neuroendocrine cancer (PNEC: PC3) is shown in FIG. 26B. Cells were plated in 96-well plates and then treated with increasing doses OGM2. Seventy-two hours later, survival was assayed with cell titer blue. Each cell line was normalized to DMSO treated control.

GPR68/OGR1 = GPR68/OGR1 (Homo sapiens (Human), UniProt Q15743); assay: inhibition of GPR68/OGR1 in CHEM1-OGR1 cells, Fluo-8 calcium response to acidified media; type: cell-based; details: acidified media pH 6.4, Fluo-8
Experimental: Briefly, the methods were: On the day before the assay 20,000 cells per well of CHEM1-OGR1 cells were plated in 10% DMEM containing 10% FBS and 1% Pen/Strep into a 96 well plate. After 24 hours media was removed and cells were stained with 80 uL Fluo-8 calcium indicator dye according to manufacturer's protocol. After staining cells were treated with 20 uL of 4× concentration of test compounds. Using kinetic imaging in the Lionheart HCS fluorescence intensity was continuously measure at 10 frames per second, for 5 seconds before 100 μL of acidified media was added to the well resulting in a pH of 6.4. A ratio of fluorescence intensities prior to addition and at peak were calculated and averaged. The resulting data were platted and using a 4 parameter logistic regression EC50 for each test compound was determined.

PANC02 pancreatic cells [2] = assay: PANC02 scratch migration; type: cell-based; details: 10 μM, 24 hours
Experimental: In a second study, PANC02 pancreatic cells plated and grown to confluence. Using a P200 tip, cells were denuded and allowed to migrate for 24 hours in DMSO or 10 μM OGM2 and imaged.

GPR68 [3] = molecular target: T1, GPR68 (Homo sapiens (Human), UniProt Q15743); assay: GPR68 inhibitory activity of OGM analogs (Table 5); type: cell-based
Experimental: GPCR profiling assays were performed by Millipore (St. Louis, MO) using in cells expressing Gα15, a promiscuous G protein that enhances GPCR coupling to downstream Ca2+ signaling pathways.
Since GPCRs represent >30% of targets for FDA-approved small molecules and are known to modulate cell migration, activity against 158 GPCRs was assessed based on their chemical structures. GPCRs (158) were tested for agonist and antagonist activity at 10 μM. […] Chemical segregation analysis of zebrafish phenotype was conducted to further identify the inhibitory activity responsible for the zebrafish phenotype. […] The identities of the R groups in FIG. 2B are shown below in Table 5.
(§2) Chem1-GPR68 reporter cells were treated with 20 uM OM8345 for 2 hours and then rinsed with HBSS. […] The GPR68 inhibitory activity of OGM analogs segregated with the ability of the molecule to induce the phenotype in zebrafish. Neural crest progenitors labeled with In situ hybridization of FoxD3 show normal formation of the progenitor pool.

U87 glioblastoma cells = assay: calcium release on acidification in U87 cells (Fluo-8); type: cell-based; details: media pH6.4, Fluo-8
Description: GPR68 is known to signal through Gq which results in a calcium flux out of the Endoplasmic reticulum. U87 glioblastoma cells were stained, using a calcium-sensitive vital dye Fluo-8, and stimulated with acidification of the media to pH6.4. The cells respond to the acidification with a burst of calcium release, this is inhibited by OGM2.

WM115 melanoma cell line = assay: scratch assay for migration, WM115; type: cell-based, human; details: OGM 5 μM, EIPA 10 μM, 20 hours
Experimental: (§3) Cells were grown to confluence and the cells were denuded with a P200 tip. A medium change was done to add fresh medium, remove loose cells and add compounds OGM (5 μM) and EIPA (10 μM). The area of the scratch was observed 20 hours later.
(§4) Since there are numerous parallels are found between neural crest cells and cancer during migration, we examined whether OGM could inhibit the migration of cells in human melanoma cell lines (Oppitz et al., 2007; Schriek et al., 2005; Sinnberg et al., 2018). […] A2058, MeWo and WM115 cells were grown to confluence and a stripe of cells were denuded with a p200 pipette tip “scratch” and rinsed with PBS. Cells were treated with OGM or EIPA, or DMSO and incubated in low serum media. Imaging was done at 30 minutes after “scratch” and then 20 hours afterwards. Areas were then measured and normalized to the initial area.
(§5) Previous studies with the MV3 melanoma cell line have shown that disruption of proton efflux with EIPA inhibition of NHE1 can also reduce melanoma motility (Ludwig et al., 2013; Schneider et al., 2009; Stock et al., 2007, 2005; Stüwe et al., 2007). […] Although the expression of GPR68 and other proton-sensing receptors have been characterized in various skin cancers (Merkel cell carcinoma, dermatofibrosarcoma protuberans, atypical fibroxanthoma, and pleomorphic dermal sarcoma), expression in melanoma cell lines has not investigated (Nassios et al., 2019).

[4] = tested on: Prostatic Neuroendocrine cancer (PNEC: PC3); assay: viability (cell titer blue), prostate cancer cells; type: cell-based; details: PC3, 72 hours
Experimental: as §1

A2058 melanoma cell line = assay: scratch assay for migration, A2058; type: cell-based, human; details: OGM 5 μM, EIPA 10 μM, 20 hours
Experimental: as §3, §4, §5

MeWo melanoma cell line = assay: scratch assay for migration, MeWo; type: cell-based, human; details: OGM 5 μM, EIPA 10 μM, 20 hours
Experimental: as §3, §4, §5

PANC02 pancreatic cells [5] = assay: PANC02 clonogenicity (crystal violet); type: cell-based; details: 7 days
Experimental: In a third study, PANC02 pancreatic cells were plated at 400 cells per well in a 6-well plate and on the next day were treated with increasing concentrations of OGM2 for 7 days. The plate was fixed with formalin and stained with crystal violet.

GPR68 [6] = molecular target: T1, GPR68; assay: Chem-1 OGR1/GPR68 recovery assay after inhibitor washout; type: cell-based
Experimental: Chem-1 OGR1/GPR68 cells from Millipore™ (St. Louis, MO) were plated in 96-well format and stained with Fluo-8. Using the Lionheart FX (Biotek™) a baseline for 3 seconds was observed before the medium was acidified using an automated injector to reach pH 6.8. Cells then were dynamically monitored and change in fluorescence was quantified using Gen5 software (Biotek™). Pretreatment of 10 μM OGM2 for 4 hours was used. Each well was only assayed once at the correct time interval after inhibitor removal.
as §2
Additional experiments, OGM2 resynthesized and used (due to its submicromolar potency and GPR68 specificity) were performed. See FIG. 3A (HNMR of resynthesis of OGM2) and FIG. 3B (LCMS of resynthesis of OGM2). To test the possibility of OGM2 being an irreversible inhibitor, Chem1-OGR1 cells (Millipore™) were incubated with 10 μM OGM2 for 4 hours, and after removing the compound stimulated with pH 6.4 medium. […] Time till 50% max ˜52 minutes. The signal returned back towards baseline uninhibited levels in a rapid and time-dependent manner.

Spheroids = assay: pH dependent tumoroid growth; type: cell-based; details: pH 6.2 vs pH 8 buffered media, 3 days
Experimental: Spheroids were formed over 3 days using low attachment 96-well round bottom plates and then treated with DMSO or OGM2 in either pH 8 buffered media or pH 6.2 buffered media and grown for 3 days. The size (area) of spheroids was measured in relative area units. […] This increase in growth was abrogated by OGM2.

A549 lung cancer cells [7] = assay: A549 clonogenicity (crystal violet); type: cell-based; details: 8 days
Experimental: A549 lung cancer cells were plated at 300 cells per well in a 6-well plate and on the next day were treated with increasing concentrations of OGM2 for 8 days. The plate was fixed with formalin and stained with crystal violet. See FIG. 25B for results at the indicated concentrations.

[8] = tested on: U87 glioblastoma spheroids; assay: matrix invasion of U87 spheroids in Matrigel, acidified media; type: cell-based
Description: U87 glioblastoma spheroids were formed in low attachment round bottom plates for 3 days. Spheroids were then covered in Matrigel™, which was allowed to polymerize before treatment with acidified media with or without OGM2. Acidification increased the degree of matrix invasion which is attenuated by OGM2.

T1 sequence (Q15743 whole entry, looked up): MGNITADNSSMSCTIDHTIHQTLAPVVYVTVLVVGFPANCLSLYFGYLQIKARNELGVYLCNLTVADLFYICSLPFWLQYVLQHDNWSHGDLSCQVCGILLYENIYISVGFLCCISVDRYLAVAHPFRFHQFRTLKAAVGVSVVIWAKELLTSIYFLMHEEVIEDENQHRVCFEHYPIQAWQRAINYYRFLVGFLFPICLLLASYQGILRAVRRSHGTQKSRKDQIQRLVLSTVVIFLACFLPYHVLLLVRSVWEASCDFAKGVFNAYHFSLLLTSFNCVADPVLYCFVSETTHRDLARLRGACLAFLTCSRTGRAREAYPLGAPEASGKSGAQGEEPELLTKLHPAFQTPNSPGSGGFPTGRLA
Chain of GPR68/OGR1 (Q15743 whole entry): as the sequence (Q15743 whole entry, looked up) above

CCc1ccc2c(c1)C1(NN=C(c3ccccc3)S1)C(=O)N2 (centres unmarked) [OGM2]
cell viability in combination with temozolomide (TMZ) (U87 cells): synergistic result | toxicity (cell viability) (A549 lung cancer cells [1]): relatively High doses of OGM2 are necessary for toxicity | viability (breast (MDA MB231)): Reduces Viability | EC50 (GPR68/OGR1): 1350 nM | migration (PANC02 pancreatic cells [2]): significantly reduced migration | IC50 (GPR68 [3]): 710 nM | calcium release in response to acidification (U87 glioblastoma cells): inhibited | migration in scratch assay (WM115 melanoma cell line): migrated significantly less | viability [4]: Reduces Viability | migration in scratch assay (A2058 melanoma cell line): migrated significantly less | migration in scratch assay (MeWo melanoma cell line): migrated significantly less | clonogenicity (PANC02 pancreatic cells [5]): reduced the clonogenicity | recovery of GPR68 activity after washout (GPR68 [6]; 10 μM for 4 hours, then removed): restored rapidly after washout of inhibitor | Time till 50% max (recovery of GPR68 activity) (GPR68 [6]; after 10 μM for 4 hours, washout, pH 6.4 medium): ~52 min | increase in spheroid growth at pH 6.2 (Spheroids): abrogated | clonogenicity (A549 lung cancer cells [7]): reduced the clonogenicity | degree of matrix invasion [8]: attenuated
